One experiment has as its system TRAP-1. As to the kind of experiment: Pull-down assay: client proteins SIRT3 and SDHB on GST-TRAP1 beads. To be noted: TRAP1-bead form with isolated mitochondria and drug, 4° C., 18 hours (FIG. 14). It is filed as binding. The procedure: A pull-down assay was performed to confirm whether SMx competitively binds to SIRT3 and SDHB, which are known as client proteins of TRAP-1. TRAP1 protein in the GST fusion form was purified from bacteria cells and then bound to glutathione beads to make a TRAP1-bead form, and then the TRAP1-bead form was bound to the mitochondria isolated from mammalian cells (Thermo Scientific mitochondria isolation kit) with a drug at 4° C. for 18 hours. The cells were treated with SMx, and gamitrinib and PU-H71, which are previously developed N-terminal domain inhibitors of hsp90s, as the drugs, according to the concentrations shown in the drawing. […] This is strong evidence that SMx has the ability to bind to the middle domain of TRAP-1.

The next experiment deals with HIF-1α. As to the kind of experiment: Western blot of HIF-1α in ARPE-19 cells under hypoxia. To be noted: ARPE-19, 1 μM, 1% oxygen, 6 hours (FIG. 26). The format is cell-based, Human. How it is done: Human retinal pigmented epithelium ARPE-19 cells were seeded in the number of 3×10^5 on a 60-millimeter plate, and cultured at 37° C. and 5% CO2, and DMEM/F-12 including 10% fetal bovine serum and 1% penicillin & streptomycin was used as the medium for 2 days. Two days later, the cells were treated with DMSO (0.5%), SMx, SB-U005, SB-U009, SB-U011 and SB-U012 at 1 μM and cultured under 1% oxygen conditions in a hypoxia chamber for 6 hours, and then a western blot experiment was performed.
After the cell culture experiment was completed, the cell culture solution was removed, the cells was washed once with cold PBS, and a RIPA solution (50 mM Tris-HCl pH 7.4, 150 mM NaCl, 0.25% Na-deoxycholate, 1% NP-40) was added thereto to harvest cells using a cell scraper. After the cells were sufficiently lysed, a 6× sample buffer was mixed with a cell suspension obtained by low-temperature centrifugation, the resulting mixture was boiled at 95° C. for 5 minutes, and then 12% SDS-PAGE was performed. […]
Thereafter, the membrane was washed twice with TBS-T (Tris-buffered saline+Tween-20), and then reacted with a secondary antibody (diluted at 1:5,000) at room temperature for 1 hour. After the membrane was washed twice with TBS-T, changes in protein expression level were measured by a Chemidoc system (GE, LAS 4000) using a Clarity Western ECL substrate (Bio-Rad).
A general note: In western blotting, separated proteins are transferred to a membrane and probed.

Structures are written as SMILES.

On to `COC1=C(OC)C(=O)C(CCCCCCCCCC[P+](c2ccccc2)(c2ccccc2)c2ccccc2)=C(C)C1=O` [SMx], for which the “binding of the client protein (SIRT3, SDHB) to TRAP-1” value in the experiment with TRAP-1 is reported as “significantly reduced”. In addition, the “suppression of HIF-1α” value with HIF-1α is “effectively suppressed”.
